Laboratory results as given in patent US20260357222A1, “GROWTH-BASED SELECTION PLATFORM FOR NONCANONICAL COFACTOR OXIDIZING ENZYMES” (The Regents of the University of California, priority 2022, published 2026).
Where a chain is given by its changes, count along the chain named.

T1: Lactobacillus pentosus NADH oxidase (Lp Nox), wild type, SEQ ID NO:1 (Lactiplantibacillus pentosus, UniProt A0A0U3FIG2)
T1 sequence (A0A0U3FIG2 1-450): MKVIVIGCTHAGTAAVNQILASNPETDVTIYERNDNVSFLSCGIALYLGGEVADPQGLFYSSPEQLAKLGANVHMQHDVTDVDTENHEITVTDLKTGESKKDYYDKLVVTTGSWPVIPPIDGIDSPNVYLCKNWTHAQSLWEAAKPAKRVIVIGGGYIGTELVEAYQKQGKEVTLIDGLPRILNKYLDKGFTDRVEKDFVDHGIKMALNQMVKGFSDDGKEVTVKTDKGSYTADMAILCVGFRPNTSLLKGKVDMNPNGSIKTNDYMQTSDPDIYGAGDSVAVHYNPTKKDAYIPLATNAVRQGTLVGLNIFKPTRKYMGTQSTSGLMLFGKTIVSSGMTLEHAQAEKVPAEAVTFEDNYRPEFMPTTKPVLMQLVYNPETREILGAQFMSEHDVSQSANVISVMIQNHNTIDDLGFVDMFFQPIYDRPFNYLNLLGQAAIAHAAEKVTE

T2: Lactobacillus pentosus NADH oxidase (Lp Nox) variant LP-7 (I158S-D177W-V240L), SEQ ID NO:3 (Lactiplantibacillus pentosus, UniProt A0A0U3FIG2, D177W/I158S/V240L)
T2 construct: variant LP-7
T2 sequence (A0A0U3FIG2 1-450 I158S/D177W/V240L): T1 sequence (A0A0U3FIG2 1-450) with I158S, D177W, V240L

T3: Lactobacillus pentosus NADH oxidase (Lp Nox) variant LP-3 (I158S-D177W-G178E-V240L), SEQ ID NO:6 (Lactiplantibacillus pentosus, UniProt A0A0U3FIG2, D177W/G178E/I158S/V240L)
T3 construct: variant LP-3
T3 sequence (A0A0U3FIG2 1-450 I158S/D177W/G178E/V240L): T1 sequence (A0A0U3FIG2 1-450) with I158S, D177W, G178E, V240L

T4: Lactobacillus pentosus NADH oxidase (Lp Nox) variant LP-3-EP (I158S-D177W-G178E-V240L-P362H-V395L), SEQ ID NO:7 (Lactiplantibacillus pentosus, UniProt A0A0U3FIG2, D177W/G178E/I158S/P362H/V240L/V395L)
T4 construct: variant LP-3-EP
T4 sequence (A0A0U3FIG2 1-450 I158S/D177W/G178E/V240L/P362H/V395L): T1 sequence (A0A0U3FIG2 1-450) with I158S, D177W, G178E, V240L, P362H, V395L

B1: Lactobacillus pentosus NADH oxidase (Lp Nox), wild type, SEQ ID NO:1 (Lactiplantibacillus pentosus) (protein)
chain: T1 sequence (A0A0U3FIG2 1-450)

Assays:
[1] = target: T1, Lactobacillus pentosus NADH oxidase (Lp Nox), wild type, SEQ ID NO:1; test: Lp Nox enzymatic kinetics, cofactor oxidation at 340 nm, wild type; format: biochemical; details: role: cofactor, 50 mM Tris-HCl pH 7.0, 37 °C
Protocol: (§1) Protein Expression and Purification. Lp Nox wild type or variants (see Table 1) are expressed with E. coli BL21 (DE3) with plasmids inoculated in 2× YT media with 200 mg L^−1 ampicillin. Expression was carried out by inoculation of 20 mL 2× YT media supplied with antibiotics and an overnight culture incubated at 30 °C, 250 RPM with an OD600nm of 0.072. Cells were grown at 37 °C in 50 mL conical tubes, and the cultures were induced with 0.5 mM IPTG at an OD600nm of 0.6-1.0. The 20 mL culture was then incubated at 27 °C and 250 RPM for 24 h. After 24 h, cells were harvested for protein extraction (centrifugation at 4 °C, 3000 RPM, 20 min). Cell pellets were resuspended in Zymo His-Binding buffer (Zymo Research Corporation) supplied with 0.15 mM FAD, 1 μL/mL DNase (Sigma Aldrich) and 1 mM InSolution [COMPOUND LEFT OUT] (Sigma Aldrich). The resuspended cell mixture was added to 0.5 mL of 0.1 mm glass beads (Biospec) and homogenized using a benchtop homogenizer (MP Biomedicals). Cell debris was separated from the crude extract by centrifugation at 4 °C and 15,000 RPM for 5 min. Protein purification was performed using His-Spin Protein Miniprep (Zymo Research Corporation) according to the manufacturer's instructions. The concentrations of purified protein were quantified by a Bradford assay using BSA as a standard. Purified protein was stored in aliquots with 20% (v/v) glycerol at −80 °C.
NMNH generation. NMNH generation was performed in 20 mL reaction volumes in a 50 ml conical tube containing 200 mM Tris-Cl at pH 8.0, 100 mM sodium chloride, 3 mM potassium chloride, 200 mM glucose, and 20 m MNMN^+. The reaction was initiating by spiking 500 ng of purified Bacillus subtilis glucose dehydrogenase I195R8. The reaction was incubated at 30 °C until reaction progression stopped, approximately 6 h. Reaction progression was monitored by observing the increase in light absorption at 340 nm, corresponding to the reduction of NMN^+ to NMNH. Then, the solution was filtered through a 15 kD cutoff filter to remove the protein. […] The elution step was repeated until no NMNH remained in the flow through, as monitored by light absorption at 340 nm. […]
(§2) Lp Nox Enzymatic Assays and Kinetic study with NMNH, NAD(P) H. The Lp Nox activity (see FIG. 4A) was determined by the change in light absorption at 340 nm at 37 °C in 50 mM Tris-Cl buffer pH 7.0. […] The absorbance change at 340 nm for NAD(P) H and NMNH was detected using a SpectraMax M3 microplate reader. […] Cofactor concentration over 2 mM could not be measured accurately on M3 spectrometer due to detector absorbance saturation at 340 nm.

[2] = target: T2, Lactobacillus pentosus NADH oxidase (Lp Nox) variant LP-7 (I158S-D177W-V240L), SEQ ID NO:3; test: Lp Nox enzymatic kinetics, cofactor oxidation at 340 nm, variant LP-7; format: biochemical; details: role: cofactor; for Km / kcat / kcat/Km: apparent, cofactor 0 to 2 mM
Protocol: as §1
(§3) NMNH generation. NMNH generation was performed in 20 mL reaction volumes in a 50 ml conical tube containing 200 mM Tris-Cl at pH 8.0, 100 mM sodium chloride, 3 mM potassium chloride, 200 mM glucose, and 20 m MNMN^+. The reaction was initiating by spiking 500 ng of purified Bacillus subtilis glucose dehydrogenase I195R8. The reaction was incubated at 30 °C until reaction progression stopped, approximately 6 h. Reaction progression was monitored by observing the increase in light absorption at 340 nm, corresponding to the reduction of NMN^+ to NMNH. Then, the solution was filtered through a 15 kD cutoff filter to remove the protein. To purify the NMNH, the flowthrough was mixed with HPLC-grade acetonitrile to a final concentration of 70% acetonitrile, and the solution was passed through a Phenomenex Strata NH2 (2 g/12 mL, 55 μm, 70 Å) solid phase extraction column. The column was washed twice with 4 mL of 70:30 acetonitrile:water, then twice with 4 mL of 50:50 acetonitrile:water, twice with 4 mL of 30:70 acetonitrile:water, twice with 4 mL of nanopurified water, and finally twice with 4 mL of methanol. To elute the NMNH from the column, 2 mL of a solution containing 50:50 ammonium hydroxide:methanol was added to the column and incubated for 3 minutes before eluting. The elution step was repeated until no NMNH remained in the flow through, as monitored by light absorption at 340 nm. The elution fractions containing NMNH were pooled and aliquoted in 1 mL volumes into clean tubes. The solutions were dried over air and stored at −80 °C until use.
(§4) Lp Nox Enzymatic Assays and Kinetic study with NMNH, NAD(P) H. The Lp Nox activity (see FIG. 4A) was determined by the change in light absorption at 340 nm at 37 °C in 50 mM Tris-Cl buffer pH 7.0. The reactions were started by adding the purified protein to the prewarmed 37 °C assay mixture containing 0.3 mM of respective cofactor. The absorbance change at 340 nm for NAD(P) H and NMNH was detected using a SpectraMax M3 microplate reader. For kinetics parameter determination (see Table 2), cofactor concentrations were varied from 0 to 2 mM and the results were fitted to the standard Michaelis-Menten equation or Lineweaver-Burk equation to acquire catalytic efficiencies (kcat/Km) when the cofactor concentration tested could not saturate the enzyme activity or during the presence of substrate inhibition. Cofactor concentration over 2 mM could not be measured accurately on M3 spectrometer due to detector absorbance saturation at 340 nm.

[3] = target: T3, Lactobacillus pentosus NADH oxidase (Lp Nox) variant LP-3 (I158S-D177W-G178E-V240L), SEQ ID NO:6; test: Lp Nox enzymatic kinetics, cofactor oxidation at 340 nm, variant LP-3; format: biochemical; details: role: cofactor, 50 mM Tris-HCl pH 7.0, 37 °C; for Km / kcat / kcat/Km: apparent, cofactor 0 to 2 mM
Protocol: as §1, §3, §4

[4] = target: T4, Lactobacillus pentosus NADH oxidase (Lp Nox) variant LP-3-EP (I158S-D177W-G178E-V240L-P362H-V395L), SEQ ID NO:7; test: Lp Nox enzymatic kinetics, cofactor oxidation at 340 nm, variant LP-3-EP; format: biochemical; details: for kcat/Km: estimated based on kinetics under lower cofactor concentrations before inhibition was observed; for inhibition of LP 3-EP activity by the cofactor: role: inhibitor (cofactor inhibition), above 1 mM NADH or NADPH, fits poorly with the substrate inhibition rate equation
Protocol: as §1, §3, §4

[5] = target: T1, Lactobacillus pentosus NADH oxidase (Lp Nox), wild type, SEQ ID NO:1; details: role: cofactor; oxidation of MNAH and BNAH by wild-type Lp Nox; cited from earlier work
[6] = substrate: NC(=O)C1=CN([C@@H]2O[C@H](COP(=O)(O)OP(=O)(O)OC[C@H]3O[C@@H](n4cnc5c(N)ncnc54)[C@H](O)[C@@H]3O)[C@@H](O)[C@H]2O)C=CC1; test: Lp Nox enzymatic kinetics, cofactor oxidation at 340 nm, wild type; format: biochemical, Lactobacillus pentosus; details: other: role: cofactor, apparent, 50 mM Tris-HCl pH 7.0, 37 °C, cofactor 0 to 2 mM
Protocol: as §1, with “Purified protein was stored in aliquots with 20% (v/v) glycerol at −80 °C.” left out
NMNH generation. […] Reaction progression was monitored by observing the increase in light absorption at 340 nm, corresponding to the reduction of NMN^+ to NMNH. […] The elution step was repeated until no NMNH remained in the flow through, as monitored by light absorption at 340 nm. […]
as §2

[7] = role: cofactor, 50 mM Tris-HCl pH 7.0, 37 °C
[8] = enzyme could not be saturated with the cofactor concentrations tested

Row | Molecule | Km ([2]; 50 mM Tris-HCl pH 7.0, 37 °C) [µM] | kcat ([2]; 50 mM Tris-HCl pH 7.0, 37 °C) [s⁻¹] | kcat/Km ([2]; 50 mM Tris-HCl pH 7.0, 37 °C) [M⁻¹ s⁻¹] | Km [3] [µM] | kcat [3] [s⁻¹] | kcat/Km [3] [M⁻¹ s⁻¹] | kcat/Km [4, 7] | inhibition of LP 3-EP activity by the cofactor [4] | catalytic efficiencies (in words) [5] | further results
1 | NC(=O)C1=CN([C@@H]2O[C@H](COP(=O)(O)OP(=O)(O)OC[C@H]3O[C@@H](n4cnc5c(N)ncnc54)[C@H](OP(=O)(O)O)[C@@H]3O)[C@@H](O)[C@H]2O)C=CC1 [NADPH, nicotinamide adenine dinucleotide phosphate] | 890 ± 40 | 27 ± 2 | 31000 ± 1000 | 1100 ± 100 | 28 ± 1 | 26000 ± 1000 | 51 ± 3^c mM^−1s^−1 | strongly inhibited | – | Km ([1]; apparent, cofactor 0 to 2 mM): 1900 ± 200 µM; kcat ([1]; apparent, cofactor 0 to 2 mM): 18 ± 2 s⁻¹; kcat/Km ([1]; apparent, cofactor 0 to 2 mM): 9300 ± 200 M⁻¹ s⁻¹
2 | NC(=O)C1=CN([C@@H]2O[C@H](COP(=O)(O)O)[C@@H](O)[C@H]2O)C=CC1 [NMNH, nicotinamide mononucleotide] | – | – | – | – | – | – | – | – | – | kcat/Km (catalytic efficiency for NMNH) [1, 8]: 2300 ± 100 M⁻¹ s⁻¹; kcat/Km (catalytic efficiency for NMNH) ([2]; 50 mM Tris-HCl pH 7.0, 37 °C, enzyme could not be saturated with the cofactor concentrations tested): 18000 ± 1000 M⁻¹ s⁻¹; increase of catalytic efficiency for NMNH from the wild type ([2]; ratio of kcat/Km to wild type): ~ 8 fold; kcat/Km (catalytic efficiency for NMNH) [3, 8]: 10000 ± 1000 M⁻¹ s⁻¹; kcat/Km (catalytic efficiency for NMNH) ([4]; role: cofactor, 50 mM Tris-HCl pH 7.0, 37 °C, enzyme could not be saturated with the cofactor concentrations tested): 23000 ± 1000 M⁻¹ s⁻¹; inhibition effect when NMNH was utilized ([4]; role: cofactor, NMNH as cofactor): not seen; gain of catalytic efficiency for NMNH from LP 3 ([4]; role: cofactor, ratio of kcat/Km to LP 3): ~ 2.5 fold; increase of catalytic efficiency for NMNH from the wild type ([4]; role: cofactor, ratio of kcat/Km to wild type): ~ 10 fold
3 | NC(=O)C1=CN(Cc2ccccc2)C=CC1 [BNAH, 1-Benzyl-1,4-dihydronicotinamide] | – | – | – | – | – | – | – | – | low catalytic efficiencies | –
4 | CN1C=CCC(C(N)=O)=C1 [MNAH, N-methyl-1,4-dihydronicotinamide] | – | – | – | – | – | – | – | – | low catalytic efficiencies | –
5 | NC(=O)C1=CN([C@@H]2O[C@H](COP(=O)(O)OP(=O)(O)OC[C@H]3O[C@@H](n4cnc5c(N)ncnc54)[C@H](O)[C@@H]3O)[C@@H](O)[C@H]2O)C=CC1 [NADH, nicotinamide adenine dinucleotide] | 1700 ± 200 | 47 ± 4 | 28000 ± 1000 | 1900 ± 40 | 31 ± 1 | 17000 ± 1000 | 49 ± 2.0^c mM^−1s^−1 | strongly inhibited | – | –
6 | B1 | – | – | – | – | – | – | – | – | – | Km [6]: 24 ± 5 µM; kcat [6]: 21 ± 1 s⁻¹; kcat/Km [6]: 844000 ± 4000 M⁻¹ s⁻¹
